Values joined by “and” are separate entries in the source; they are usually repeats but may differ in a detail not shown here. Identical values can stand only once.
What was measured:
[1] = molecular target: T1, Inhibitor of nuclear factor kappa-B kinase subunit epsilon (Homo sapiens) (UniProt Q14164); conditions: at 1 µM
T1 sequence (whole entry): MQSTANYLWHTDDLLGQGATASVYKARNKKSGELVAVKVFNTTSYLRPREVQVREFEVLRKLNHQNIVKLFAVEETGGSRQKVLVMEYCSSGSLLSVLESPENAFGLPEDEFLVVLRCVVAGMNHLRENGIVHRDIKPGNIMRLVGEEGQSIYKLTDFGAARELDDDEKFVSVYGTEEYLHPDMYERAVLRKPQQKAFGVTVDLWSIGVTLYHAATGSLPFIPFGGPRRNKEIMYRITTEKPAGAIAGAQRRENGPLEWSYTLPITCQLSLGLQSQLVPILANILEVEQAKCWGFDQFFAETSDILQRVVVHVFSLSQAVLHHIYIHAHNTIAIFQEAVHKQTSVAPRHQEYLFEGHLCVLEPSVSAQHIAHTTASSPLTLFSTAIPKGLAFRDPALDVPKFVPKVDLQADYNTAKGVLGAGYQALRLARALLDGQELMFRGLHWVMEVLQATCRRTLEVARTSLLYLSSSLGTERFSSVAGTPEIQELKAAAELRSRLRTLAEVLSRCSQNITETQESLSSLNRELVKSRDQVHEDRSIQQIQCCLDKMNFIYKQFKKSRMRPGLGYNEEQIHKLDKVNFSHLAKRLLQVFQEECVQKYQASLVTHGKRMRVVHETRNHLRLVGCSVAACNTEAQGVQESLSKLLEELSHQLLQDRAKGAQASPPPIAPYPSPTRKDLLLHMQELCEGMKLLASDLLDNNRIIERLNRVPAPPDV

[2] = molecular target: T2, Tyrosine-protein kinase Mer (Homo sapiens) (UniProt Q12866); conditions: at 10 µM
T2 sequence (whole entry): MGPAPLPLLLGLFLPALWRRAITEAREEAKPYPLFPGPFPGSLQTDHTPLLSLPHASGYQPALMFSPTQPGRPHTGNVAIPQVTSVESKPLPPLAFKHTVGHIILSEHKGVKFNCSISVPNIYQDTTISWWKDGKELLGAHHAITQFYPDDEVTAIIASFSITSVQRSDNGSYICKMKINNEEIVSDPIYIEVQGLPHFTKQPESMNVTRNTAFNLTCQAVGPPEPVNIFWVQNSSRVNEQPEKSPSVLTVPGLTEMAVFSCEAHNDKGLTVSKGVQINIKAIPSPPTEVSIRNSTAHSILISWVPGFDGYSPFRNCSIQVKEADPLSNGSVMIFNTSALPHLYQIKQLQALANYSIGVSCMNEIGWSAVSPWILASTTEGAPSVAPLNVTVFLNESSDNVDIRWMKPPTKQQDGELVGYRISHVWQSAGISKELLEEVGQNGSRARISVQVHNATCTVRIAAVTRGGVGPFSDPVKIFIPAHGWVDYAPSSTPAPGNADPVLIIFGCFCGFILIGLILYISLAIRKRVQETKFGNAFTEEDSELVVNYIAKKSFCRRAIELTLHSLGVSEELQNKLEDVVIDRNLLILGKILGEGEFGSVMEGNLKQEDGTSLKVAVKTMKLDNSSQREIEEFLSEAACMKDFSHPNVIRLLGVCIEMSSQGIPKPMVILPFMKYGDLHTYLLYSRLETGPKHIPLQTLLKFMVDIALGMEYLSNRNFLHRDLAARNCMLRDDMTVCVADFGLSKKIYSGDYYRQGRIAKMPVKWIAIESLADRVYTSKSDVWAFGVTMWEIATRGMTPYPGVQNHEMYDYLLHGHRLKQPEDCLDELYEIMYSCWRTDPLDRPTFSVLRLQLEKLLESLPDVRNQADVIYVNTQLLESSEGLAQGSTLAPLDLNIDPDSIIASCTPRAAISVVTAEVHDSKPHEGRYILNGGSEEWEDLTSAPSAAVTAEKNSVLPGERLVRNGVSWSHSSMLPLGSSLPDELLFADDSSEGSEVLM

[3] = molecular target: T3, Serine/threonine-protein kinase TBK1 (Homo sapiens) (UniProt Q9UHD2); conditions: at 1 µM
T3 sequence (whole entry): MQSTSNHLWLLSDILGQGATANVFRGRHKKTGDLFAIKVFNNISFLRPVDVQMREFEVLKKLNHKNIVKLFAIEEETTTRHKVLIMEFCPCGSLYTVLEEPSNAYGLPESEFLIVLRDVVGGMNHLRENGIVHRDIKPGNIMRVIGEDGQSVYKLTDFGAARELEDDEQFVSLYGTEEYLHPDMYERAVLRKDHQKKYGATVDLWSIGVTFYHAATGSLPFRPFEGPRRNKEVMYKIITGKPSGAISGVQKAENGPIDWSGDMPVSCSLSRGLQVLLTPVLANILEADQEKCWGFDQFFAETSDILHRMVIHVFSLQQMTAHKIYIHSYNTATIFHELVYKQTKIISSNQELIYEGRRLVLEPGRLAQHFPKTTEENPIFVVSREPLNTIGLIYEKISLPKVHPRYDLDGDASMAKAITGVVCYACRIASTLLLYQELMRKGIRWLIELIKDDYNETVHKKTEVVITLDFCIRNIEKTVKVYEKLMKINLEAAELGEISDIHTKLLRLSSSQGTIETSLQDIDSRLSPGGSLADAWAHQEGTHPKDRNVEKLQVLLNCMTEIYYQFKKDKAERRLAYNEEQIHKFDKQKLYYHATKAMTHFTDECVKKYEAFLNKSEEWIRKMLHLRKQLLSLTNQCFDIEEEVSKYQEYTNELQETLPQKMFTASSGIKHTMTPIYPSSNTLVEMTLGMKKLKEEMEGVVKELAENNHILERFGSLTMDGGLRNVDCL

inhibition [1]	inhibition [2] [%]	inhibition [3]	SMILES
4% and 3%	-1	16% and 17%	NS(=O)(=O)c1ccc(Nc2cc(-c3ccc(O)c(F)c3)n[nH]2)cc1
-1% and 1%	-7	5% and 3%	O=C(Nc1n[nH]c2nnc(-c3cccnc3)cc12)C1CC1
-1% and 0%	-3	6% and 5%	COc1cccc(-n2ncc3c(N/N=C/c4cccc(F)c4)ncnc32)c1
-1% and 0%	3	0% and 3%	COc1ccc(C2=C(N3CCc4ccccc43)C(=O)NC2=O)cc1
2% and 1%	101	21% and 4%	NC(=O)c1sc(-n2cnc3ccc(C(F)(F)F)cc32)cc1OCc1ccccc1Br
2% and 4%	5	11% and 4%	C[C@@H](Oc1cc(-n2cnc3ccc(OCC4CCN(C)CC4)cc32)sc1C(N)=O)c1ccccc1C(F)(F)F
3% and 1%	-5	2% and 5%	CNC(=O)c1cncc(/C=C/c2ccccc2C)c1
-2% and -1%	7	-2%	Cc1nnc(-c2ccc(C)c(-c3ccc(C(=O)Nc4cccc(C#N)c4)cc3)c2)o1
17% and 13%	68	35% and 27%	COc1cc(Nc2ncc(-c3ccccc3)o2)cc(OC)c1OC
11% and 21%	48	8%	Nc1nonc1-c1nc2cnccc2n1C1CC1
1% and 3%	-3	7% and 10%	CCCN(CCS(C)(=O)=O)Cc1ccc(-c2ccc3ncnc(Nc4ccc(OCc5cccc(F)c5)c(Cl)c4)c3c2)o1
3% and 4%	39	5% and 8%	Cc1nc(-c2ccccc2)n2nc(NCCCN3CCOCC3)ncc12
65%	-8	59% and 60%	NS(=O)(=O)c1ccc(N/N=C2\C(=O)Nc3ccc(C(=O)NCc4ccncc4)cc32)cc1
0% and 2%	2	7% and 8%	CN(C)C(=O)O[C@H]1CN[C@H](C#Cc2cc3ncnc(Nc4ccc(OCc5cccc(F)c5)c(Cl)c4)c3s2)C1

Second part, the compound before the results:

SMILES	inhibition [1]	inhibition [2] [%]	inhibition [3]
CCn1cc(-c2ccnc3[nH]ccc23)c(-c2cccc(NC(=O)Nc3ccc(OCc4ccccc4)cc3)c2)n1	0% and 1%	-1	-4% and -1%
NCc1ccc(-n2c(-c3nonc3N)nc3cnccc32)cc1	2%	-3	6% and 5%
CC(C)COC(=O)c1ccc2c(c1)/C(=C/Nc1ccc(S(N)(=O)=O)cc1)C(=O)N2	94%	0	93% and 98%
O=C(Nc1ccc(Oc2ccc3[nH]c(NC(=O)c4ccco4)nc3c2)cc1)Nc1cc(C(F)(F)F)ccc1F	1% and 0%	27	0% and 2%
CCc1ccc(Oc2nccc(-c3c(-c4ccc(F)cc4)ncn3C3CCNCC3)n2)cc1	-3% and -4%	-6	-6% and -3%
COC(=O)c1ccc2c(c1)C(=Cc1cc(Br)c(O)c(Br)c1)C(=O)N2	51% and 52%	5	36%
Nc1ncnc2occ(-c3ccc(NC(=O)Nc4cccc(C(F)(F)F)c4)cc3)c12	19% and 16%	43	0% and -1%
COC(=O)Nc1nc2ccc(Oc3ccc(NC(=O)Nc4cccc(Cl)c4)cc3)cc2[nH]1	2% and 1%	2	0% and 2%
CS(=O)(=O)Nc1ccc(-c2cc(-c3ccccc3)cc(C(N)=O)c2N)cc1	-2% and -1%	-2	-2% and -4%
COc1cc(Nc2ncc3c(C)nc(-c4cccc(C(F)(F)F)c4)n3n2)cc(OC)c1OC	29% and 33%	6	53% and 45%
COc1cc(C=NNc2ncnc3c2cnn3-c2ccccc2)ccc1O	13% and 11%	0	38% and 42%
CCn1c(-c2nonc2N)nc2c(C#CC(C)(C)O)nc(OCCNC)cc21	44% and 46%	-6	23% and 19%
CS(=O)(=O)CCNCc1ccc(-c2ccc3ncnc(Nc4ccc(OCc5ccccc5)c(C(F)(F)F)c4)c3c2)o1	-2% and -1%	-2	-3% and -1%
NS(=O)(=O)c1ccc(Nc2ncc(-c3ccccc3)o2)cc1	2% and 3%	2	10% and 5%
COc1cccc(-n2nc(C)c3c(N/N=C(\C)c4ccncc4)ncnc32)c1	18% and 3%	-8	4% and 2%
COc1cc(N2CCN(C(C)C)CC2)ccc1Nc1nc(Nc2cccc3ncccc23)c2cc[nH]c2n1	2% and 0%	-5	7% and 2%
COc1cccc(-n2cnc3c(N/N=C/c4ccncc4)ncnc32)c1	1% and 0%	-4	4% and -1%
CC(C)c1ccc(Nc2nccc(-c3cnn4ncccc34)n2)cc1	15% and 11%	32	18% and 19%
CS(=O)(=O)Nc1cccc(-c2ccc3c(NC(=O)C4CC4)n[nH]c3c2)c1	0%	47	3% and 5%
Nc1nc(-c2ccccn2)c(-c2ccc3ncccc3n2)s1	0% and -2%	-5	3% and 0%
CN1CCC(n2cnc(-c3ccc(F)cc3)c2-c2ccnc(Nc3ccccc3)n2)CC1	0% and -2%	-1	0% and -2%
c1ccc(-c2nc3n(c2-c2ccc4c(c2)OCO4)CCC3)nc1	1% and 2%	-1	5%
CC(C)(CO)CNC(=O)c1ccc2c(c1)/C(=N/Nc1ccc(S(N)(=O)=O)cc1)C(=O)N2	77% and 76%	9	87% and 88%
COc1cc2ncn(-c3cc(OCc4ccccc4C(F)(F)F)c(C(=O)N(C)C)s3)c2cc1OC	-1%	-10	-1% and 0%
CS(=O)(=O)CCNCc1ccc(-c2ccc3ncnc(Nc4ccc(OCc5ccccc5)cc4)c3c2)o1	-1%	-3	-1% and -2%
Fc1ccc(-c2nn3ccccc3c2-c2ccncc2)cc1	-4% and 2%	-2	-4% and -8%
CCn1c(-c2nonc2N)nc2c(N3CCCC3)nccc21	-3% and -4%	-3	-8% and -4%

— ChEMBL document CHEMBL2007661, “Compounds: GSK PKIS; Assays: UNC Frye lab” (2012)
